Assay results reported in patent US9724338B2, “Methods of using (+)-1,4-dihydro-7-[(3S,4S)-3-methoxy-4-(methylamino)-1-pyrrolidinyl]-4-OXO-1-(2-thiazolyl)-1,8-naphthyridine-3-carboxylic acid for treatment of antecedent hematologic disorders” (SUNESIS PHARMACEUTICALS, INC., priority 2007, dated 2017).

Assays:
[1] = tested on: relapsed CMML (transformed to AML); experiment: Clinical study: treatment with SNS-595 of a patient with relapsed CMML (Example 3); format: in vivo, human; conditions: 50 mg/m^2 twice a week; for Marrow blasts: slow IV push
Description: A patient with relapsed CMML (transformed to AML) was enrolled. The patient was diagnosed about 17 months prior to the study, was treated with 1 cycle of a Southwest Oncology Group (SWOG) regimen after diagnosis. They were given 4 cycles of azacitidine (Vidaza®) about 14 months prior to the study and 1 cycle of decitabine, about 6 months before the study.

[2] = tested on: MDS that had transformed to refractory CMML (progressed to AML); experiment: Clinical study: treatment with SNS-595 of a patient with MDS transformed to refractory CMML (Example 2); format: in vivo, human; conditions: 72 mg/m^2 once per week for three weeks; for Peripheral Blasts: slow IV push
Description: A patient with MDS that had transformed to refractory CMML was enrolled in this study. The patient was diagnosed about 26 months prior to the study and was given 8 cycles of azacitadine (Vidaza®) about 10 months prior to the study. They were then treated with mitoxantrone+VP16 for 1 cycle, about 4 months prior to the study. […] The patient had initial marrow blast count of 39%. The following observations were noted on days 15 and 35.

[3] = Solubility of SNS-595 in compositions for injection or intravenous infusion (Example 1); format: physicochemical; conditions: Acidic compositions (<pH 4)
Text: The resulting composition is also suitable for lyophilization. The lyophilized form is then reconstituted with sterile water to the appropriate concentration prior to use.

[4] = tested on: advanced or refractory acute leukemias; experiment: Clinical study: dose-escalating treatment of acute leukemia with SNS-595 (Example 4); format: in vivo, human
Text: Minimum cycle length was 42 days for Arm A and 39 days for Arm B, respectively. Additional cycles were permitted if patients achieved stable disease or better. […] Pre- and post-dose bone marrow aspirates were obtained from a subset of patients to assess biomarkers.

[5] = Arm A, weekly x3, dose escalation to 90 mg/m^2

Compound: CN[C@H]1CN(c2ccc3c(=O)c(C(=O)O)cn(-c4nccs4)c3n2)C[C@@H]1OC [SNS-595, (+)-1,4-dihydro-7-[(3S,4S)-3-methoxy-4-(methylamino)-1-pyrrolidinyl]-4-oxo-1-(2-thiazolyl)-1,8-naphthyridine-3-carboxylic acid]
- Clinical outcome of treatment ([1]; one patient): clinical benefit (i.e. hematological improvement) with reduction in blast counts
- Absolute neutrophil count (ANC) ([1]; At the time of undergoing treatment with third cycle): 1600
- Marrow blasts ([1]; Post Cycle 1, baseline 20% blasts): 8%
- Circulating blasts ([1]; Post Cycle 2): 4%
- Marrow blasts ([1]; Post Cycle 2): 1%
- Circulating blasts ([1]; Post Cycle 3): 8%
- Circulating blasts ([1]; Post Cycle 4): 12%
- Clinical outcome of treatment ([2]; one patient): clinical benefit with reduction in splenomegaly and blast counts
- Ultimate disease status ([2]; one patient): progressive disease
- White blood cell (WBC) count, earlier value ('was') ([2]; Around Day 35, before rise with Necrotizing fasciitis (NF) infection): 7000
- Absolute neutrophil count (ANC) ([2]; Around Day 35): 3139
- Peripheral Blasts ([2]; Around Day 35, one patient): 33%
- White blood cell (WBC) count ([2]; Around Day 35, patient had Necrotizing fasciitis (NF) infection): 16000
- Absolute neutrophil count (ANC) ([2]; Day 15): 94
- White blood cell (WBC) count ([2]; Day 15): 600
- Peripheral Blasts ([2]; Day 15, one patient): No blasts
- Solubility [3]: increased solubility
- Dose-limiting toxicity (DLT) ([4]; Arm A, 27 mg/m^2 weekly dose (also had progressive disease)): G4 myelosuppression
- Complete Responses (CR) ([4]; Arm A, 50 mg/m^2 dose level): 1 patient
- Dose-limiting toxicity (DLT) ([4]; Arm A, 50 mg/m^2 weekly dose): prolonged myelosuppression
- Response of a patient with AML and splenomegaly ([4]; Arm A, 72 mg/m^2): clinical benefit with reduction in splenomegaly and blast counts
- Dose-limiting toxicity (DLT) ([4]; Arm A, 72 mg/m^2 weekly dose): bowel obstruction
- Clinical activity: reductions in marrow blasts to ≦5% ([4]; Arm A, doses at or above 50 mg/m^2): 5 patients
- Drug-related G3 & 4 events: diarrhea ([4]; Arm A, weekly x3): 1 patient
- Drug-related G3 & 4 events: stomatitis ([4]; Arm A, weekly x3): 3 patients
- Non-dose-limiting toxicities (non-DLTs) [4, 5]: nausea/vomiting and diarrhea
- Number of dose-limiting toxicities (DLTs) observed [4, 5]: Three
- Clinical activity: reductions in marrow blasts to ≦5% ([4]; Arm B, 40 mg/m^2): 1 patient
- Complete Responses (CR) ([4]; Arm B, 40 mg/m^2 level): 1 patient
- Response of a patient with AML and splenomegaly ([4]; Arm B, 50 mg/m^2 dose level, patient had G3 mucositis): partial response
- G3 mucositis ([4]; Arm B, twice weekly x2, 40 mg/m^2): two patients out of 11
- Dose-limiting toxicity (DLT) of Grade (G) 3 mucositis ([4]; Arm B, twice weekly x2, 50 mg/m^2 dose level): 3 patients
- Tolerability in patients with advanced leukemias ([4]; Arms A and B): well-tolerated
